pIC50: −log10 of the molar value.
What follows are compounds tested against human full-length BTK Kinase (Homo sapiens (Human), UniProt Q06187) (assay: Human BTK LanthaScreen Assay (TR-FRET)). Conditions: 50 μM ATP, FAM-Srctide peptide substrate, read-out: BTK Inhibition IC50.
Assay type: biochemical
Description: Human BTK LanthaScreen Assay

Sequence of human full-length BTK Kinase (Q06187 whole entry): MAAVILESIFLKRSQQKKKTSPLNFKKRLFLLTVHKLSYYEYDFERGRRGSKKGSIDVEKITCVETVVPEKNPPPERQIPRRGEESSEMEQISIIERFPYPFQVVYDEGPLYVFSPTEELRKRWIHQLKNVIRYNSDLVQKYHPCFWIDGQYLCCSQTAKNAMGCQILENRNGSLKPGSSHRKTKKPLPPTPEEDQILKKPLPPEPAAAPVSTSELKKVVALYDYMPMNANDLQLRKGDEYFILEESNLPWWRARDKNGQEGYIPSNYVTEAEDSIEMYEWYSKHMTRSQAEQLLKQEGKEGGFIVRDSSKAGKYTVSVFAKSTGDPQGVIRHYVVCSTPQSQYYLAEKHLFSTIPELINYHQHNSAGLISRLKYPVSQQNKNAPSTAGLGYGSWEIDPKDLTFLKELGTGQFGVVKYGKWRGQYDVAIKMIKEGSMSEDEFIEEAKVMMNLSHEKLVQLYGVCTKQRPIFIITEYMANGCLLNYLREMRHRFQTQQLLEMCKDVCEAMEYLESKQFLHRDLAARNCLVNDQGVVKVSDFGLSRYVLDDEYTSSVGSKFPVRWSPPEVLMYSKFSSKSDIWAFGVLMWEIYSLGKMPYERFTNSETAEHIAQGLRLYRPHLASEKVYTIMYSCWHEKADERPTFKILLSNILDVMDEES

Going from `NC(=O)c1c(-c2ccc(Oc3ccc(F)cc3F)cc2)nn([C@@H]2CCCN(C(=O)/C=C/C(F)F)C2)c1N` [Example 144, 5-amino-1-{(3R)-1-[(2E)-4,4-difluorobut-2-enoyl]piperidin-3-yl}-3-[4-(2,4-difluorophenoxy)phenyl]-1H-pyrazole-4-carboxamide] to `CC(C)(O)/C=C/C(=O)N1CCC[C@@H](n2nc(-c3ccc(Oc4ccc(F)cc4F)cc3)c(C(N)=O)c2N)C1` [Example 147, 5-amino-3-[4-(2,4-difluorophenoxy)phenyl]-1-{(3R)-1-[(2E)-4-hydroxy-4-methylpent-2-enoyl]piperidin-3-yl}-1H-pyrazole-4-carboxamide], the pIC50 falls from 9.39 to 6.62 (2.77 log units).

`Cc1cc(Oc2ccc(-c3nn(C4CCCN(C#N)C4)c(N)c3C(N)=O)cc2)ccc1Cl` (centres unmarked) [Example 40, 5-amino-3-[4-(4-chloro-3-methylphenoxy)phenyl]-1-(1-cyanopiperidin-3-yl)-1H-pyrazole-4-carboxamide] and `Cc1ccc(Oc2ccc(-c3nn(C4CCCN(C#N)C4)c(N)c3C(N)=O)cc2)cc1` (centres unmarked) [Example 42, 5-amino-1-(1-cyanopiperidin-3-yl)-3-[4-(4-methylphenoxy)phenyl]-1H-pyrazole-4-carboxamide] are within 0.2 log units of each other in pIC50: 8.82 for the first, 8.92 for the second.

Going from `C[C@@H]1CC[C@H](n2nc(-c3ccc(Oc4ccc(F)cc4F)cc3)c(C(N)=O)c2N)CN1C#N` [Example 123, 5-amino-1-[(3S,6R)-1-cyano-6-methylpiperidin-3-yl]-3-[4-(2,4-difluorophenoxy)phenyl]-1H-pyrazole-4-carboxamide] to `COc1cc(F)ccc1Oc1ccc(-c2nn(C3CCCN(C#N)C3)c(N)c2C(N)=O)cc1` (centres unmarked) [Example 47, 5-amino-1-(1-cyanopiperidin-3-yl)-3-{4-[4-fluoro-2-methoxyphenoxy]phenyl}-1H-pyrazole-4-carboxamide], the pIC50 rises from 6.40 to 8.80 (2.40 log units).

`N#CN1CCCC(n2nc(-c3ccc(Oc4ccccc4)nc3)c(C(N)=O)c2N)C1` (centres unmarked) [Example 107, 5-amino-1-(1-cyanopiperidin-3-yl)-3-(6-phenoxypyridin-3-yl)-1H-pyrazole-4-carboxamide] and `N#CN1CCCC(n2nc(-c3cccc(Oc4ccccc4)c3)c(C(N)=O)c2N)C1` (single isomer, unassigned) [Example 91] are within 0.2 log units of each other in pIC50: 6.77 for the first, 6.81 for the second.

First: CC(C)Oc1ccc(Oc2ccc(-c3nn(C4CCCN(C#N)C4)c(N)c3C(N)=O)cc2)cc1 (centres unmarked) [Example 44, 5-amino-1-(1-cyanopiperidin-3-yl)-3-[4-(4-isopropoxyphenoxy)phenyl]-1H-pyrazole-4-carboxamide]
Second: COc1cccc(Oc2ccc(-c3nn(C4CCCN(C#N)C4)c(N)c3C(N)=O)cc2)c1 (centres unmarked) [Example 48, 5-amino-1-(1-cyanopiperidin-3-yl)-3-[4-(3-methoxyphenoxy)phenyl]-1H-pyrazole-4-carboxamide]
The pIC50 of the first is 1.75 log units lower: 7.61 for the first, 9.36 for the second.

First: Cc1ccc(Oc2cccc(-c3nn(C4CCCN(C#N)C4)c(N)c3C(N)=O)c2)cc1 (centres unmarked) [Example 98, 5-amino-1-(1-cyanopiperidin-3-yl)-3-[3-(4-methylphenoxy)phenyl]-1H-pyrazole-4-carboxamide]
Second: N#CN1CCC(n2nc(-c3ccc(Oc4ccccc4)cc3)c(C(N)=O)c2N)C1 (centres unmarked) [Example 7, 5-amino-1-(1-cyanopyrrolidin-3-yl)-3-(4-phenoxyphenyl)-1H-pyrazole-4-carboxamide]
The pIC50 of the first is 0.23 log units lower: 7.56 for the first, 7.79 for the second.

Going from `N#CN1CCCC(n2nc(-c3ccc(Oc4cc(F)c(F)cc4F)cc3)c(C(N)=O)c2N)C1` (centres unmarked) [Example 59, 5-amino-1-(1-cyanopiperidin-3-yl)-3-[4-(2,4,5-trifluorophenoxy)phenyl]-1H-pyrazole-4-carboxamide] to `N#CN1CCCC(n2nc(-c3ccc(Cc4ccc(F)c(F)c4)cc3)c(C(N)=O)c2N)C1` (single isomer, unassigned) [Example 85], the pIC50 falls from 8.07 to 6.67 (1.40 log units).

First: N#CN1CCCC(n2nc(-c3ccc(Cc4ccc(F)cc4F)cc3)c(C(N)=O)c2N)C1 (single isomer, unassigned) [Example 82]
Second: N#CN1CCC[C@@H](n2nc(-c3ccc(Cc4ccccc4F)cc3)c(C(N)=O)c2N)C1 (single isomer, unassigned) [Example 75]
The pIC50 of the first is 2.19 log units lower: 6.90 for the first, 9.09 for the second.

Going from `Cc1cccc(Cc2ccc(-c3nn([C@H]4CCCN(C#N)C4)c(N)c3C(N)=O)cc2)c1` [Example 70, (S)-5-amino-1-(1-cyanopiperidin-3-yl)-3-(4-(3-methylbenzyl)phenyl)-1H-pyrazole-4-carboxamide] to `N#CN1CCC[C@H](n2nc(-c3ccc(Cc4ccccc4Cl)cc3)c(C(N)=O)c2N)C1` [Example 73, (S)-5-amino-3-(4-(2-chlorobenzyl)phenyl)-1-(1-cyanopiperidin-3-yl)-1H-pyrazole-4-carboxamide], the pIC50 rises from 7.66 to 8.21 (0.55 log units). The second is the more potent here.

First: NC(=O)c1c(-c2ccc(Oc3ccc(Cl)cc3)cc2)nn([C@@H]2CCCN(C(=O)/C=C/C(F)F)C2)c1N [Example 133, 5-amino-3-[4-(4-chlorophenoxy)phenyl]-1-{(3R)-1-[(2E)-4,4-difluorobut-2-enoyl]piperidin-3-yl}-1H-pyrazole-4-carboxamide]
Second: NC(=O)c1c(-c2ccc(Oc3cccc(C(F)(F)F)n3)cc2)nn([C@@H]2CCCN(C(=O)/C=C/C(F)F)C2)c1N [Example 163, 5-amino-1-{(3R)-1-[(2E)-4,4-difluorobut-2-enoyl]piperidin-3-yl}-3-(4-{[6-(trifluoromethyl)pyridin-2-yl]oxy}phenyl)-1H-pyrazole-4-carboxamide]
The pIC50 of the first is 0.53 log units higher: 9.42 for the first, 8.89 for the second. The first is the more potent here.

First: C=CC(=O)N1CCC[C@@H](n2nc(-c3ccc(Oc4ncc(Cl)cc4F)cc3)c(C(N)=O)c2N)C1 [Example 153, 1-[(3R)-1-acryloylpiperidin-3-yl]-5-amino-3-{4-[(5-chloro-3-fluoropyridin-2-yl)oxy]phenyl}-1H-pyrazole-4-carboxamide]
Second: N#CN1CCCC(n2nc(-c3ccc(Oc4ccc(Cl)cn4)cc3)c(C(N)=O)c2N)C1 (centres unmarked) [Example 108, 5-amino-3-(4-((5-chloropyridin-2-yl)oxy)phenyl)-1-(1-cyanopiperidin-3-yl)-1H-pyrazole-4-carboxamide]
The pIC50 of the first is 1.21 log units higher: 9.32 for the first, 8.11 for the second. The first is the more potent here.

First: N#CCN1CCC(n2nc(-c3ccc(Oc4ccccc4)cc3)c(C(N)=O)c2N)C1 (centres unmarked) [Example 8, 5-amino-1-[1-(cyanomethyl)pyrrolidin-3-yl]-3-(4-phenoxyphenyl)-1H-pyrazole-4-carboxamide]
Second: N#CN1CC2CC1CC2n1nc(-c2ccc(Oc3ccccc3)cc2)c(C(N)=O)c1N (centres unmarked) [Example 11, 5-amino-1-(2-cyano-2-azabicyclo[2.2.1]hept-5-yl)-3-(4-phenoxyphenyl)-1H-pyrazole-4-carboxamide]
The pIC50 of the first is 0.45 log units lower: 7.78 for the first, 8.23 for the second. The second is the more potent here.

Compared with `N#CN1CCCC(n2nc(-c3ccc(Cc4ccc(F)cc4F)cc3)c(C(N)=O)c2N)C1` (single isomer, unassigned) [Example 81], `N#CN1CCCC(n2nc(-c3ccc(Sc4ccccc4)cc3)c(C(N)=O)c2N)C1` (centres unmarked) [Example 125, 5-amino-1-(1-cyanopiperidin-3-yl)-3-[4-(phenylthio)phenyl]-1H-pyrazole-4-carboxamide] is 1.16 log units higher in pIC50: 8.24 for the first, 9.40 for the second. The second is the more potent here.

What follows are compounds tested on Human B cells (assay: Human Primary B Cell Proliferation Assay (3H-thymidine incorporation, anti-human IgM stimulated)). Conditions: B-cell, purified human B cells, 50 μg/mL anti-human IgM F(ab')2, 72 hours.
Assay type: cell-based
Method: Human Primary B Cell Proliferation Assay
Human B cells were purified from buffy coats using the human B cell RosetteSep kit per manufacturer's instructions. Purified cells were resuspended in RPMI-10% HIFCS, 2 mM L-glutamine, 100 U/mL penicillin, 100 μg/ml streptomycin, incubated with compounds for 1 hour at 37° C. and then stimulated with 50 μg/mL anti-human IgM F(ab′)2 for 72 hours. ^3H-thymidine was included in the culture media for the final 8-16 hours. Cells were harvested and ^3H-thymidine incorporation was measured.
Human B cell Proliferation Assay

`NC(=O)c1c(-c2ccc(Oc3ccc(F)cc3F)cc2)nn([C@@H]2CCCN(C(=O)/C=C/C(F)F)C2)c1N` [Example 144, 5-amino-1-{(3R)-1-[(2E)-4,4-difluorobut-2-enoyl]piperidin-3-yl}-3-[4-(2,4-difluorophenoxy)phenyl]-1H-pyrazole-4-carboxamide] and `NC(=O)c1c(-c2ccc(Oc3cccc(C(F)(F)F)n3)cc2)nn([C@@H]2CCCN(C(=O)/C=C/C(F)F)C2)c1N` [Example 163, 5-amino-1-{(3R)-1-[(2E)-4,4-difluorobut-2-enoyl]piperidin-3-yl}-3-(4-{[6-(trifluoromethyl)pyridin-2-yl]oxy}phenyl)-1H-pyrazole-4-carboxamide] are within 0.2 log units of each other in pIC50: 9.08 for the first, 9.04 for the second.

Compound `C=CC(=O)N1CCC[C@@H](n2nc(-c3ccc(Oc4ncc(Cl)cc4F)cc3)c(C(N)=O)c2N)C1` [Example 153, 1-[(3R)-1-acryloylpiperidin-3-yl]-5-amino-3-{4-[(5-chloro-3-fluoropyridin-2-yl)oxy]phenyl}-1H-pyrazole-4-carboxamide] has a pIC50 of 9.25.

— patent US10266513B2 (Pfizer Inc., priority 2012, dated 2019)
